Assay results reported in patent US20020137929A1, “1 - (3-heterocyclylphenyl) isothiourea, -isourea, -guanidine and -amidine herbicidal agents” (Intellectual Property Department, BASF Aktiengesellschaft, priority 1998, published 2002).

Legend:
[1] = system: CHEAL (Lambsquarters, Common); assay: Preemergence herbicidal evaluation; assay type: in vivo, Chenopodium album; conditions: rated 4-5 weeks after treatment; for CHEAL rating: preemergence, 0-9 scale
How it was run: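 Greenhouse preemergence test: seed-soil mix sown on ~1 inch soil; aqueous acetone spray at equivalent of ~0.0156–0.500 kg/ha; greenhouse-held and watered; scored 0–9 visually at 4–5 weeks.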

MOOVA (Monochoria) = assay: Postemergence weed control under flooded paddy conditions; assay type: in vivo, Monochoria vaginalis; conditions: postemergence weeds
How it was run: (§1)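 With weeds 3 to 5 cm tall and rice at the 1.5 to 2.5 leaf stage, containers were flooded and water held 1.5 to 3 cm above soil. Compounds in 50/50 v/v aqueous/acetone went into the flood water at about 0.0313 to 0.500 kg/ha a.i. Effects were visually rated 0–9 against controls after three to four weeks in the greenhouse.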

[2] = system: SAGPY (Arrowhead (Pygmaea)); assay: as above; assay type: in vivo, Sagittaria pygmaea; conditions: postemergence weeds, rated 3 to 4 weeks after treatment
How it was run: as §1

[3] = system: TRZAWR (Wheat, Winter, cv Riband); assay: Postemergence herbicidal evaluation; assay type: in vivo, Triticum aestivum; conditions: for herbicidal rating TRZAWR / TRZAWR herbicidal rating: postemergence
How it was run: (§2)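 Visual 0-9 injury score (stand, vigor, malformation, size, chlorosis, appearance vs untreated) taken four to five weeks post-spray, averaged across repeat tests. Test plants about two weeks old; foliar spray of acetone/water (1:1) with 0.5% surfactant delivering ~0.0156-0.500 kg active/ha.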

GALAP (Galium) = assay: Postemergence herbicidal evaluation; assay type: in vivo, Galium aparine; conditions: for herbicidal rating GALAP / GALAP herbicidal rating: postemergence
How it was run: as §2

AMBEL (Ragweed, Common) = assay: Postemergence herbicidal evaluation; assay type: in vivo, Ambrosia artemisifolia; conditions: for herbicidal rating AMBEL / AMBEL herbicidal rating: postemergence
How it was run: as §2

## C=CCN1C(=O)C(CC(N)=O)SC1=Nc1cc(-n2c(=O)cc(C(F)(F)F)n(C)c2=O)c(F)cc1Cl (centres unmarked) [Compound 99, 3-Allyl-2-{{2-chloro-5-[3,6-dihydro-3-methyl-2,6-dioxo-4-(trifluoromethyl)-1(2H)-pyrimidinyl]-4-fluorophenyl}imino}-4-oxo-5-thiazolidineacetamide]
[1]; 0.0156 kg/ha
  CHEAL rating: 9.0
[1]; 0.0313 kg/ha
  CHEAL rating: 9.0
[1]; 0.0625 kg/ha
  CHEAL rating: 9.0
[1]; 0.1250 kg/ha
  CHEAL rating: 9.0
[1]; 0.2500 kg/ha
  CHEAL rating: 9.0
[1]; 0.5000 kg/ha
  CHEAL rating: 9.0
MOOVA (Monochoria); Rate 0.0313 kg/ha, rated 3 to 4 weeks after treatment
  Herbicidal rating MOOVA: 9.0
MOOVA (Monochoria); Rate 0.0625 kg/ha, rated 3 to 4 weeks after treatment
  Herbicidal rating MOOVA: 9.0
MOOVA (Monochoria); Rate 0.1250 kg/ha, rated 3 to 4 weeks after treatment
  Herbicidal rating MOOVA: 9.0
MOOVA (Monochoria); Rate 0.2500 kg/ha, rated 3 to 4 weeks after treatment
  Herbicidal rating MOOVA: 9.0
MOOVA (Monochoria); Rate 0.5000 kg/ha, rated 3 to 4 weeks after treatment
  Herbicidal rating MOOVA: 9.0
[2]; Rate 0.0313 kg/ha
  Herbicidal rating SAGPY: 0.0
[2]; Rate 0.0625 kg/ha
  Herbicidal rating SAGPY: 0.0
[2]; Rate 0.1250 kg/ha
  Herbicidal rating SAGPY: 3.0
[2]; Rate 0.2500 kg/ha
  Herbicidal rating SAGPY: 4.0
[2]; Rate 0.5000 kg/ha
  Herbicidal rating SAGPY: 4.0
[3]; rate 0.0156 kg/ha
  herbicidal rating TRZAWR: 4.0
[3]; rate 0.0313 kg/ha
  herbicidal rating TRZAWR: 4.5
[3]; rate 0.0625 kg/ha
  TRZAWR herbicidal rating: 5.5
[3]; rate 0.1250 kg/ha
  TRZAWR herbicidal rating: 6.5
GALAP (Galium); rate 0.0156 kg/ha
  herbicidal rating GALAP: 3.0
GALAP (Galium); rate 0.0313 kg/ha
  herbicidal rating GALAP: 6.0
GALAP (Galium); rate 0.0625 kg/ha
  GALAP herbicidal rating: 7.0
GALAP (Galium); rate 0.1250 kg/ha
  GALAP herbicidal rating: 9.0
AMBEL (Ragweed, Common); rate 0.0156 kg/ha
  herbicidal rating AMBEL: 9.0
AMBEL (Ragweed, Common); rate 0.0313 kg/ha
  herbicidal rating AMBEL: 9.0
AMBEL (Ragweed, Common); rate 0.0625 kg/ha
  AMBEL herbicidal rating: 9.0
AMBEL (Ragweed, Common); rate 0.1250 kg/ha
  AMBEL herbicidal rating: 9.0

## C=CCN1C(=O)C(CC(=O)Nc2ccccc2)SC1=Nc1cc(-n2c(=O)cc(C(F)(F)F)n(C)c2=O)c(F)cc1Cl (centres unmarked) [Compound 44, 3-Allyl-2-{{2-chloro-5-[3,6-dihydro-3-methyl-2,6-dioxo-4-(trifluoromethyl)-1(2H)-pyrimidinyl]-4-fluorophenyl}imino}-4-oxo-5-thiazolidineacetanilide]
[1]; rate 0.0156 kg/ha
  Preemergence herbicidal rating CHEAL: 3.0
[1]; rate 0.0313 kg/ha
  Preemergence herbicidal rating CHEAL: 5.0
[1]; rate 0.0625 kg/ha
  Preemergence herbicidal rating CHEAL: 4.0
[1]; rate 0.1250 kg/ha
  Preemergence herbicidal rating CHEAL: 9.0
[1]; rate 0.2500 kg/ha
  Preemergence herbicidal rating CHEAL: 9.0
[1]; rate 0.5000 kg/ha
  Preemergence herbicidal rating CHEAL: 9.0
MOOVA (Monochoria); rate 0.0313 kg/ha, 3-4 weeks after treatment
  Herbicidal rating MOOVA: 4.0
MOOVA (Monochoria); rate 0.0625 kg/ha, 3-4 weeks after treatment
  Herbicidal rating MOOVA: 4.0
MOOVA (Monochoria); rate 0.1250 kg/ha, 3-4 weeks after treatment
  Herbicidal rating MOOVA: 7.0
MOOVA (Monochoria); rate 0.2500 kg/ha, 3-4 weeks after treatment
  Herbicidal rating MOOVA: 9.0
[3]; Rate 0.0156 kg/ha
  Postemergence herbicidal rating TRZAWR: 3.0
[3]; Rate 0.0313 kg/ha
  Postemergence herbicidal rating TRZAWR: 4.0
[3]; Rate 0.0625 kg/ha
  Postemergence herbicidal rating TRZAWR: 4.0
[3]; Rate 0.1250 kg/ha
  Postemergence herbicidal rating TRZAWR: 4.0
GALAP (Galium); Rate 0.0156 kg/ha
  Postemergence herbicidal rating GALAP: 0.0
GALAP (Galium); Rate 0.0313 kg/ha
  Postemergence herbicidal rating GALAP: 1.0
GALAP (Galium); Rate 0.0625 kg/ha
  Postemergence herbicidal rating GALAP: 1.0
GALAP (Galium); Rate 0.1250 kg/ha
  Postemergence herbicidal rating GALAP: 1.0
AMBEL (Ragweed, Common); Rate 0.0156 kg/ha
  Postemergence herbicidal rating AMBEL: 4.0
AMBEL (Ragweed, Common); Rate 0.0313 kg/ha
  Postemergence herbicidal rating AMBEL: 4.0
AMBEL (Ragweed, Common); Rate 0.0625 kg/ha
  Postemergence herbicidal rating AMBEL: 7.0
AMBEL (Ragweed, Common); Rate 0.1250 kg/ha
  Postemergence herbicidal rating AMBEL: 9.0

## CCOC(=O)[C@H](C)N1C(=O)CSC1=Nc1cc(-n2c(=O)cc(C(F)(F)F)n(C)c2=O)c(F)cc1Cl [Compound 76, Ethyl 2-{{2-chloro-5-[3,6-dihydro-3-methyl-2,6-dioxo-4-(trifluoromethyl)-1(2H)-pyrimidinyl]-4-fluorophenyl}imino}-α-methyl-4-oxo-3-thiazolidineacetate, L-]
[1]; rate 0.0156 kg/ha
  Preemergence herbicidal rating CHEAL: 9.0
[1]; rate 0.0313 kg/ha
  Preemergence herbicidal rating CHEAL: 9.0
[1]; rate 0.0625 kg/ha
  Preemergence herbicidal rating CHEAL: 9.0
[1]; rate 0.1250 kg/ha
  Preemergence herbicidal rating CHEAL: 9.0
[1]; rate 0.2500 kg/ha
  Preemergence herbicidal rating CHEAL: 9.0
[2]; Rate 0.0313 kg/ha
  Herbicidal rating SAGPY: 0.0
[2]; Rate 0.0625 kg/ha
  Herbicidal rating SAGPY: 0.0
[2]; Rate 0.1250 kg/ha
  Herbicidal rating SAGPY: 4.0
[2]; Rate 0.2500 kg/ha
  Herbicidal rating SAGPY: 4.0
[3]; rate 0.0158 kg/ha
  TRZAWR herbicidal rating: 3.5
[3]; rate 0.0315 kg/ha
  TRZAWR herbicidal rating: 5.0
[3]; rate 0.0630 kg/ha
  TRZAWR herbicidal rating: 5.5
GALAP (Galium); rate 0.0158 kg/ha
  GALAP herbicidal rating: 1.0
GALAP (Galium); rate 0.0315 kg/ha
  GALAP herbicidal rating: 6.0
GALAP (Galium); rate 0.0630 kg/ha
  GALAP herbicidal rating: 7.0
AMBEL (Ragweed, Common); rate 0.0158 kg/ha
  AMBEL herbicidal rating: 9.0
AMBEL (Ragweed, Common); rate 0.0315 kg/ha
  AMBEL herbicidal rating: 9.0
AMBEL (Ragweed, Common); rate 0.0630 kg/ha
  AMBEL herbicidal rating: 9.0
